Laboratory results reported in patent US20220380371A1, “MLL1 INHIBITORS AND ANTI-CANCER AGENTS” (NOVARTIS AG, priority 2019, published 2022).

Experiments:
[1] = target: wild type MLL1 four-member complex (MLL1-4C) (Homo sapiens, UniProt Q03164); assay: MLL1 LC-MS Assay; type: biochemical; settings: read-out: LCMS
Protocol: The compounds of the present disclosure were serially and separately diluted 3-fold in DMSO to obtain a total of eight or twelve concentrations. Then the test compounds at each concentration (120 nL of each) were transferred by Mosquito into white Proxiplate plus 384-well microplate (PerkinElmer). Solutions (6 μL) of 60 nM wild type MLL1 four-member complex (MLL1-4C) and 5 μM SAM in the reaction buffer (20 mM Tris-HCl, pH 8.0, 0.01% Tween 20, 1 mM DTT, 10 mM MgCl2, 0.01% BSA) were added to the wells that were then incubated with the test compound for 20 min. A 6 μL solution of 20 μM of the peptide substrate H3K4me0 (histone H3[1-21]-Biotin) in the reaction buffer was added to initiate each reaction. The final components in the reaction solution include 30 nM MLL1-4C, 2.5 μM SAM, and 10 μM H3K4me0 with varying concentration of the compounds. A positive control consisted of 30 nM MLL1-4C, 2.5 μM SAM, and 10 μM substrate in the absence of the test compound, and a negative control consisted of 2.5 μM SAM, and 10 μM substrate only. Each reaction was incubated at rt for 120 min, then stopped by addition of 3 μL per of quench solution (2.5% TFA with 320 nM d4-SAH). The reaction mixture was centrifuged (Eppendorf centrifuge 5810, Rotor A-4-62) for 2 min at 2000 rpm. The SAH production from the enzymatic assays were monitored by LC-MS/MS on an API 4000 triple quadrupole mass spec with Turbolon Spray (Applied Biosystem) coupled with Prominenece UFLC (Shimazu). The level of SAH production were then normalized based on the values coming from the positive and negative controls to give percent enzyme activities. The data were then fit to a dose response equation using the program Helios (Novartis) to get the IC50 values of the test compounds.

[2] = test system: H3K4me3 in MV4-11 cells; assay: MV4-11 H3K4me3 Cellular ELISA Assay; type: cell-based; settings: Homo sapiens, MV4-11, 48 h
Protocol: MV4-11 H3K4me3 Cellular ELISA Assay
MV4-11 (ATCC® CRL-9591™) was cultured with RPMI1640 medium (Thermo Fisher Scientific, cat #11875) supplemented with 10% FBS (Thermo Fisher Scientific, cat #10099141) and 50 U/ml Penicillin-Streptomycin (Thermo Fisher Scientific, cat #10378016) in humidified incubator at 37° C., 5% CO2.
200 nL compounds dissolved in DMSO were serially diluted at 1:3 ratio for 12 points starting from 10 mM and dispensed into each wells of cell culture plates (PDL-coated ViewPlate-384 Black, FTC, PerkinElmer, #6007710). 3,750 MV4-11 cells in 40 μL culture medium were seeded into each well and treated with desired concentration for 48 hours. After treatment, wash cells with cold phosphate based buffer (PBS, pH 7.4) and aspirate the remaining PBS buffer. Crude histone lysate was extracted by 40 μL 0.5M HCl for 1 hour in 4° C. following neutralization by adding 32 μL neutralization buffer (0.5M Sodium phosphate dibasic, pH ˜12.5, 1.25 mM Dithiothreitol, Promega #V3151, Protease Inhibitor Cocktail, Sigma #8340) for each well. 5 μL and 20 μL of histone lysate was loaded to ELISA plate (384 Well Plates, PE HB, White, 6005620) for detection of total H3 and H3K4me3, respectively. Shake the plates gently in 4° C. for overnight. After histone binding, plates were washed with 80 μL PBS/T (PBS with 0.05% Tween-20) and blocked with 50 μL 3% BSA diluted in PBS/T per well for 1 hour. Incubate wells with primary antibody for 1 hour at room temperature using anti-H3K4me3 (CST #9727) and anti-total H3 (CST #9715) diluted 1:2000 in 3% BSA. Plates were then washed with PBS/T for 3 times and incubated with horseradish peroxidase (HRP) conjugated secondary antibody (CST #7074, 1:5000) for 1 hour at room temperature. The abundance of H3K4me3 and total H3 were measured by ECL substrates chemiluminescence (Pierce, #34080) on a plate reader (PerkinElmer EnVison 2104 Mutilable Reader). Percentage inhibition was calculated against DMSO control after normalization of H3K4me3 signal to H3 signal for individual samples. The data were then fit to a dose response curve using GraphPad Prism for IC50 calculation.

[3] = test system: MV4-11 cells; assay: MV4-11 6-Day Cell Growth CTG (CellTiter-Glo) Assay; type: cell-based; settings: Homo sapiens, MV4-11, 144 h, MV4-11 cell growth CellTiter-Glo, 6 days
Protocol: MV4-11 6-Day Cell Growth CTG (CellTiter-Glo) Assay
Acute myeloid leukemia cell MV4-11 (ATCC® CRL-9591™) was cultured with RPMI 1640 medium (Thermo Fisher Scientific, cat #11875) supplemented with 10% FBS (Thermo Fisher Scientific, cat #10099141) in humidified incubator at 37° C., 5% CO2. To assess the effect of MLL1 inhibition on cell growth, the compound of the present invention was dissolved in DMSO and serially diluted at 1:3 for 12 points starting from 10 mM then 200 nL for the replicate of each dose per well was dispensed to Viewplate-384 Black (Perkin Elmer). Exponentially growing MV4-11 cells were seeded at the density of 300 cells per well in 40 μL to the plate, so the final compound working concentration starts from 50 μM. After 6 days, 40 μL CellTiter-Glo (Promega, cat #G7573) was added into the cell culture well and luminescence was read with Envision (Perkin Elmer) to determine the viable cells. The percentage inhibition was calculated against the samples treated with DMSO only and the data were used for dose response curve fitting in GraphPad Prism to get the IC50 of representative compound of present invention, which reflects the inhibition of MLL1 activity.

| SMILES | IC50 [1] | IC50 [2] | IC50 [3] |
| --- | --- | --- | --- |
| Nc1ncnc2c1ncn2Cc1c(Br)cc(Cl)cc1N1CC[C@](N)(c2nnn[nH]2)C1 [Example 83, (R)-9-(2-(3-amino-3-(1H-tetrazol-5-yl)pyrrolidin-1-yl)-6-bromo-4-chlorobenzyl)-9H-purin-6-amine] | < 0.05 µM | < 1.9 µM | < 2 µM |
| CCc1cc(-c2ccccc2F)cc(N2CC[C@](N)(C(=O)NC3CC3)C2)c1Cn1cnc2c(N)ncnc21 [Example 92, (R)-3-amino-1-(4-((6-amino-9H-purin-9-yl)methyl)-5-ethyl-2′-fluoro-[1,1′-biphenyl]-3-yl)-N-cyclopropylpyrrolidine-3-carboxamide] | < 0.05 µM | < 1.9 µM | < 2 µM |
| Nc1ncnc2c1ncn2Cc1c(N2CC[C@](N)(C(=O)NC3CC3)C2)cc(-c2cccs2)cc1C(F)(F)F [Example 94] | < 0.05 µM | < 1.9 µM | < 2 µM |
| CCc1cc(-c2cccnc2)cc(N2CC[C@](N)(C(=O)NC3CC3)C2)c1Cn1cnc2c(N)ncnc21 [Example 95] | < 0.05 µM | < 1.9 µM | < 2 µM |
| CCc1cc(-c2cscn2)cc(N2CC[C@](N)(C(=O)NC3CC3)C2)c1Cn1cnc2c(N)ncnc21 [Example 98, (R)-3-amino-1-(2-((6-amino-9H-purin-9-yl)methyl)-3-ethyl-5-(thiazol-4-yl)phenyl)-N-cyclopropylpyrrolidine-3-carboxamide] | 0.05 to 0.1 µM | < 1.9 µM | < 2 µM |
| CCc1cc(-c2cnccn2)cc(N2CC[C@](N)(C(=O)NC3CC3)C2)c1Cn1cnc2c(N)ncnc21 [Example 100, (R)-3-amino-1-(2-((6-amino-9H-purin-9-yl)methyl)-3-ethyl-5-(pyrazin-2-yl)phenyl)-N-cyclopropylpyrrolidine-3-carboxamide] | < 0.05 µM | < 1.9 µM | < 2 µM |
| Nc1ncnc2c1ncn2Cc1c(N2CC[C@](N)(C(=O)NC3CC3)C2)cc(CN2CCOCC2)c(F)c1Cl [Example 103, (R)-3-amino-1-(2-((6-amino-9H-purin-9-yl)methyl)-3-chloro-4-fluoro-5-(morpholinomethyl)phenyl)-N-cyclopropylpyrrolidine-3-carboxamide] | < 0.05 µM | < 1.9 µM | < 2 µM |
| N#Cc1c(Cl)ccc(N2CC[C@](N)(C(=O)NC3CC3)C2)c1Cn1cnc2c(N)ncnc21 [Example 104] | < 0.05 µM | < 1.9 µM | < 2 µM |
| Nc1ncnc2c1ncn2Cc1c(N2CC[C@](N)(C(=O)NC3CC3)C2)cc(Cl)c(Cl)c1CN1CCOCC1 [Example 105] | < 0.05 µM | < 1.9 µM | < 2 µM |
| CCc1cc(Cl)cc(N2CC[C@](N)(CO)C2)c1Cn1cnc2c(N)ncnc21 [Example 108] | < 0.05 µM | < 1.9 µM | < 2 µM |
| COC[C@@]1(N)CCN(c2ccc3ccccc3c2Cn2cnc3c(N)ncnc32)C1 [Example 109] | 0.05 to 0.1 µM | < 1.9 µM | < 2 µM |
| Nc1ncnc2c1ncn2Cc1c(I)c(F)c2c(c1N1CC[C@](N)(C(=O)NC3CC3)C1)OCC2 [Example 111] | < 0.05 µM | 1.9 to 3 µM | 2 to 3 µM |
| CCSc1c(Cl)ccc(N2CC[C@](N)(C(=O)NC3CC3)C2)c1Cn1cnc2c(N)ncnc21 [Example 113] | < 0.05 µM | < 1.9 µM | < 2 µM |
| Nc1ncnc2c1ncn2Cc1c(N2CC[C@](N)(C(=O)NCc3cccnc3O)C2)ccc(F)c1C(F)(F)F [Example 120] | 0.05 to 0.1 µM | < 1.9 µM | < 2 µM |
